According to US10179777B2, “3-(1H-benzimidazol-2-yl)-1H-pyridin-2-one derivatives” (MERCK PATENT GMBH, priority 2015, dated 2019):
pIC50: −log10 of the molar value. Where a name gives a salt, the structure may show the parent alone.

Experiments:
[1] = molecular target: T1, ALK5 (TGFβR1; GST-modified TGFBR1 (200-503)) (Homo sapiens, UniProt P36897); test: ALK5 kinase inhibition assay (33P-ATP filter binding, Reaction Biology); format: biochemical; conditions: casein substrate, 200 μM ATP
T1 construct: Using GST-Modified TGFBR1 (200-503); GST
T1 sequence (P36897 200-503): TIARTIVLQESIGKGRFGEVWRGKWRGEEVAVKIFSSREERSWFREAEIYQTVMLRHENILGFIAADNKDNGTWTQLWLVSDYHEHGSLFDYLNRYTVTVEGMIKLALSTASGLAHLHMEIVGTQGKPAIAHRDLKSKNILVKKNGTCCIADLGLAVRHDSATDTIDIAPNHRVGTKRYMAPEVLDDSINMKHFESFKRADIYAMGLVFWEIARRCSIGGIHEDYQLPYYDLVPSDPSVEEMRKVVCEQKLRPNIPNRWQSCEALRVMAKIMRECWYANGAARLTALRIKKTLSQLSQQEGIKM
Procedure: The protein sequences of the kinases targeted and accompanying information are described in publically available data base http://www.uniprot.org/uniprot/for ALK1 www.uniprot.org/uniprot/P37023, for ALK2 www.uniprot.org/uniprot/Q04771 and for ALK5 www.uniprot.org/uniprot/P36897. IC50 determination of the novel inhibitors described was performed at Reaction Biology Corp., Malvern, Pa., USA, with assay conditions open to public at www.reactionbiology.com/webapps/site/KinaseDetail.aspx?page=Kinases&id=1, and www.reactionbiology.com/webapps/site/Kinase Assay Protocol.aspx. In addition, they were specified previously in Anastassiadis et al. Nat. Biotechnol. 29(11): 1039-1045. doi:10.1038/nbt.2017.
A3) ALK5 Kinase Inhibition Assay Was Performed Similar to Procedures A1 and A2 Using GST-Modified TGFBR1 (200-503) and 1 mg/ml Casein as Substrate at 200 μM ATP.

[2] = molecular target: T2, ALK2 (GST-modified kinase domain ACVR1(145-509)) (Homo sapiens, UniProt Q04771); test: ALK2 kinase inhibition assay (33P-ATP filter binding, Reaction Biology); format: biochemical; conditions: casein substrate, 20 μM ATP (Km ATP), 120 min ambient temperature
T2 construct: N-terminally GST-modified kinase domain ACVR1(145-509); GST (N)
T2 sequence (Q04771 145-509): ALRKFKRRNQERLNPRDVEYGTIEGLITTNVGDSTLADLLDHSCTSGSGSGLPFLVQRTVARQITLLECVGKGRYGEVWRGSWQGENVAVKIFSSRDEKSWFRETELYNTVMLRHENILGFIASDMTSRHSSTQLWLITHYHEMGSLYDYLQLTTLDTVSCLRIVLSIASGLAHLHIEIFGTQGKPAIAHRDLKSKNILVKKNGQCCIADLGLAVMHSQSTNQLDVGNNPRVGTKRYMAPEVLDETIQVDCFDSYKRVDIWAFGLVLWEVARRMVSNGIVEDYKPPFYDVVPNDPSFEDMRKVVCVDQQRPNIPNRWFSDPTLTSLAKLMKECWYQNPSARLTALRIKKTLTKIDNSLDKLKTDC
Outline: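 Human ACVR1(145-509) kinase domain, N-terminal GST-tagged, with 1 mg/ml casein substrate and 33P-ATP in 20 mM HEPES pH 7.5, 10 mM MgCl2, 1 mM EGTA, 2 mM DTT, 1% DMSO. Incubated 120 min at ambient temperature, then spotted on P81 filters and washed. Background-subtracted activity taken as % of DMSO control; IC50 from curve fit.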

[3] = system: ALK1-mediated SMAD1/5 phosphorylation in HUVEC cells; test: Cell-based immunofluorescence assay for ALK1-mediated SMAD1/5 phosphorylation in HUVEC cells; conditions: Homo sapiens, 1.5 ng/ml BMP-9 with compound for 2 h, % nuclei with pSMAD1/5 signal, read-out: Smad 1/5 IC50
Outline: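 Serum-starved primary HUVEC (≤5 passages) were treated with compound (1 nM-30 μM, 10 doses, 0.5% DMSO) plus 1.5 ng/ml BMP-9 for 2 h at 37° C. Cells were then fixed and immunostained for phospho-Smad1/5 (Ser463/465), and % positive nuclei were counted by confocal imaging. Data were normalised to DMSO (0%) and 10 μM reference inhibitor (−100%).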

[4] = molecular target: T3, ALK1 (GST-modified kinase domain ACVRL1 (139-503)) (Homo sapiens, UniProt P37023); test: ALK1 kinase inhibition assay (33P-ATP filter binding, Reaction Biology); format: biochemical; conditions: casein substrate, 100 μM ATP (Km ATP), 120 min ambient temperature
T3 construct: N-terminally GST-modified kinase domain ACVRL1 (139-503); GST (N)
T3 sequence (P37023 139-503): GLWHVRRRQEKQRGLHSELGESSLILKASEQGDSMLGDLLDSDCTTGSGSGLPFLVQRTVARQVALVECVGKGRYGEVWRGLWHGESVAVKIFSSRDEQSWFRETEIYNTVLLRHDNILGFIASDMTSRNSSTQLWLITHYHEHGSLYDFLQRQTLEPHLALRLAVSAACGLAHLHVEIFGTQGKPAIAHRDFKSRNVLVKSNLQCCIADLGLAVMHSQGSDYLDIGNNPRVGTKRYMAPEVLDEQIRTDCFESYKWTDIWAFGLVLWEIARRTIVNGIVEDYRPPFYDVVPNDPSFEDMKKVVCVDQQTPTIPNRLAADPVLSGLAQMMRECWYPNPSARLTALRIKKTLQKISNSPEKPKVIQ
Outline: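 GST-tagged kinase domain with 20 mg/ml casein substrate in 20 mM HEPES pH 7.5, 10 mM MgCl2, 1 mM EGTA, 2 mM DTT, 1% DMSO; 120 min at ambient temperature. Phosphorylation read by P81 filter binding; background-subtracted activity as percent of DMSO vehicle, curve-fit for IC50.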

| SMILES | pIC50 [1] | pIC50 [2] | pIC50 [4] | pIC50 [3] |
| --- | --- | --- | --- | --- |
| O=c1[nH]cc(-c2cc(F)c(CO)c(F)c2)cc1-c1nc2cc(N3CCNCC3)ccc2[nH]1 [Compound A21, 5-(3,5-Difluoro-4-hydroxymethyl-phenyl)-3-(5-piperazin-1-yl-1H-benzimidazol-2-yl)-1H-pyridin-2-one dihydrochloride] | 5.29 | 7.64 | 8.07 | 5.21 |
| CN1CCC(Oc2ccc3[nH]c(-c4cc(-c5ccnc6ccccc56)c[nH]c4=O)nc3c2)CC1 [Compound A59, 3-[6-(1-Methyl-piperidin-4-yloxy)-1H-benzimidazol-2-yl]-5-quinolin-4-yl-1H-pyridin-2-one] | 5.60 | 7.10 | 6.77 | 4.92 |
| NC1CCN(c2ccc3[nH]c(-c4cc(-c5cccc(CO)c5)c[nH]c4=O)nc3c2)CC1 [Compound A26, 3-[5-(4-Amino-piperidin-1-yl)-1H-benzimidazol-2-yl]-5-(3-hydroxymethyl-phenyl)-1H-pyridin-2-one dihydrochloride] | 5.72 | 7.51 | 8.30 | 5.74 |
| O=c1[nH]cc(-c2ccnc3[nH]ccc23)cc1-c1nc2cc(Oc3ccncc3)ccc2[nH]1 [Compound A40, 3-[5-(Pyridin-4-yloxy)-1H-benzimidazol-2-yl]-5-(1H-pyrrolo[2,3-b]pyridin-4-yl)-1H-pyridin-2-one] | 5.09 | 7.25 | 7.14 | 5.28 |

Now from value to compound, other results behind:

| pIC50 [1] | pIC50 [2] | pIC50 [4] | SMILES | pIC50 [3] |
| --- | --- | --- | --- | --- |
| 5.49 | 7.96 | 7.80 | CN1CCN(c2ccc3[nH]c(-c4cc(-c5ccc(CO)cc5)c[nH]c4=O)nc3c2)CC1 [Compound A35, 5-(4-Hydroxymethyl-phenyl)-3-[5-(4-methyl-piperazin-1-yl)-1H-benzimidazol-2-yl]-1H-pyridin-2-one] | 6.14 |
| 5.44 | 7.03 | 7.41 | O=c1[nH]cc(-c2cccc(CO)c2)cc1-c1nc2cc(N3CCOCC3)ccc2[nH]1 [Compound A1, 5-(3-Hydroxymethyl-phenyl)-3-(5-morpholin-4-yl-1H-benzimidazol-2-yl)-1H-pyridin-2-one] | 5.89 |
| 5.68 | 7.80 | 8.46 | O=c1[nH]cc(-c2cc(CO)ccc2Cl)cc1-c1nc2cc(N3CCNCC3)ccc2[nH]1 [Compound A22, 5-(2-Chloro-5-hydroxymethyl-phenyl)-3-(5-piperazin-1-yl-1H-benzimidazol-2-yl)-1H-pyridin-2-one dihydrochloride] | 5.48 |
| 5.85 | 7.66 | 7.77 | O=c1[nH]cc(-c2cccc3[nH]ccc23)cc1-c1nc2cc(N3CCNCC3)ccc2[nH]1 [Compound A48, 5-(1H-Indol-4-yl)-3-(5-piperazin-1-yl-1H-benzimidazol-2-yl)-1H-pyridin-2-one] | 6.00 |
| 5.96 | 7.66 | 8.54 | CN(C)C1CCN(c2ccc3[nH]c(-c4cc(-c5cccc(CO)c5)c[nH]c4=O)nc3c2)CC1 [Compound A36, 3-[5-(4-Dimethylamino-piperidin-1-yl)-1H-benzimidazol-2-yl]-5-(3-hydroxymethyl-phenyl)-1H-pyridin-2-one formate] | 6.62 |
